System: KKAY mice
Test: Plasma anti-arteriosclerosis index-enhancing action in mice (Test Example 2)
Assay type: in vivo
Conditions: Mus musculus, po, 96 h, 0.005% in powdery diet, four days, percent increase of (HDL cholesterol/total cholesterol)x100, non-treatment group taken as 100%

Row | SMILES | change in vivo at 0.005 % in diet [%]
1 | CCOc1nn(-c2ccc(C(F)(F)F)cn2)cc1CCCOc1cccc(CC(=O)O)c1 [Example 30, [3-(3-{3-ethoxy-1-[5-(trifluoromethyl)-2-pyridyl]-1H-pyrazol-4-yl}propoxy)phenyl]acetic acid] | 19
2 | CCOc1nn(-c2ccc(C(F)(F)F)cn2)cc1CCCOc1ccccc1CC(=O)O [Example 31, (2-(3-{3-ethoxy-1-[5-(trifluoromethyl)-2-pyridyl]-1H-pyrazol-4-yl}propoxy)phenyl]acetic acid] | 16
3 | O=C(O)CCc1cc(OCCCc2cn(-c3ccc(C(F)(F)F)cn3)nc2C2CCCCC2)nn1-c1ccccc1 [Example 189, 3-[3-(3-{3-cyclohexyl-1-[5-(trifluoromethyl)-2-pyridyl]-1H-pyrazol-4-yl}propoxy)-1-phenyl-1H-pyrazol-5-yl]propionic acid] | 20
4 | CCC(CC)c1nn(-c2ccc(Cl)cn2)cc1CCCOc1c(CC(=O)O)cccc1OC [Example 223, (2-{3-[1-(5-chloro-2-pyridyl)-3-(1-ethylpropyl)-1H-pyrazol-4-yl]propoxy}-3-methoxyphenyl)acetic acid] | 12
5 | COc1cccc(CC(=O)O)c1OCCCc1cn(-c2ccc(C(F)(F)F)nn2)nc1C(C)C [Example 274, [2-(3-{3-isopropyl-1-[6-(trifluoromethyl)pyridazin-3-yl]-1H-pyrazol-4-yl}propoxy)-3-methoxyphenyl]acetic acid] | 11
6 | COc1ccc(CC(=O)O)cc1OCCCc1cn(-c2ccc(C(F)(F)F)cn2)nc1C1CCCCC1 [Example 304, [3-(3-{3-cyclohexyl-1-[5-(trifluoromethyl)-2-pyridinyl]-1H-pyrazol-4-yl}propoxy)-4-methoxyphenyl]acetic acid] | 13
7 | Cc1cccc(CC(=O)O)c1OCCCc1cn(-c2ccc(C(F)(F)F)cn2)nc1C1CCCCC1 [Example 316, [2-(3-{3-cyclohexyl-1-[5-(trifluoromethyl)-2-pyridinyl]-1H-pyrazol-4-yl}propoxy)-3-methylphenyl]acetic acid] | 10
8 | CCC(CC)c1nn(-c2ccc(C(F)(F)F)nn2)cc1CCCOc1c(C)cccc1CC(=O)O [Example 340, [2-(3-{3-(1-ethylpropyl)-1-[6-(trifluoromethyl)pyridazin-3-yl]-1H-pyrazol-4-yl}propoxy)-3-methylphenyl]acetic acid] | 21

From patent publication US20060148858A1, “1, 2-Azole derivatives with hypoglycemic and hypolipidemic activity” (priority 2002, published 2006)
